Experiment [1] has as its target T1, HilD (Salmonella enterica, UniProt P0CL08). As to the kind of experiment: biochemical. Details: EYFP-HilD (full-length HilD with N-terminal EYFP tag); microscale thermophoresis, fatty acid titrated against EYFP-HilD in presence of Pluronic F-127, MST on-time 1.5 s. Conditions: in presence of Pluronic F-127; read-out: Kd ± SD.
For experiment [2], the target named is T1, HilD. As to the kind of experiment: EMSA with hilA promoter DNA. It counts as biochemical. The arrangement: HilD.
Experiment [3] deals with T1, HilD. As to the kind of experiment: MST. Details: EYFP-HilD (full-length HilD with N-terminal EYFP tag). Type of experiment: binding. Conditions: read-out: Kd ± SD.
Experiment [4] addresses T2, HilD (Salmonella enterica, UniProt P0CL08, R267A).
T2 construct: HilD point mutant
T2 sequence (P0CL08 1-309 R267A): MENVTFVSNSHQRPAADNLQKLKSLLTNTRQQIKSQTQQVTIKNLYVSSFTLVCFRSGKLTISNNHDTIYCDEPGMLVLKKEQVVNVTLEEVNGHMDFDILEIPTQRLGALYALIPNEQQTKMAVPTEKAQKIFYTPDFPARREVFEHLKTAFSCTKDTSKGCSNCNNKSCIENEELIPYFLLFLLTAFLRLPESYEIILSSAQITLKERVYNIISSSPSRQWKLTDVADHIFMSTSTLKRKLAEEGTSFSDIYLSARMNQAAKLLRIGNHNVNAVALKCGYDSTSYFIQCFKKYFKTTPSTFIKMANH
As to the kind of experiment: MST. Type of experiment: binding.

The target of experiment [5] is T3, HilD (Salmonella enterica, UniProt P0CL08, E102A/K264A/R267A).
T3 construct: HilD triple alanine mutant
T3 sequence (P0CL08 1-309 E102A/K264A/R267A): T2 sequence (P0CL08 1-309 R267A)
As to the kind of experiment: MST. Type of experiment: binding.

The target in experiment [6] is T1, HilD. As to the kind of experiment: MST; supported by HDX-MS, nanoDSF and BS3 cross-linking. Details: EYFP-HilD (full-length HilD with N-terminal EYFP tag). The settings on record: read-out: Kd ± SD. Type of experiment: binding.
The target of experiment [7] is T4, HilD (Salmonella enterica, UniProt P0CL08, E102A).
T4 construct: HilD point mutant
T4 sequence (P0CL08 1-309 E102A): T2 sequence (P0CL08 1-309 R267A)
As to the kind of experiment: MST. It counts as binding.

Experiment [8] concerns the target T5, HilD (Salmonella enterica, UniProt P0CL08, K264A).
T5 construct: HilD point mutant
T5 sequence (P0CL08 1-309 K264A): T2 sequence (P0CL08 1-309 R267A)
As to the kind of experiment: MST. It counts as binding.

The target of experiment [9] is T1, HilD. As to the kind of experiment: MST; supported by nanoDSF melting temperature increase. The settings on record: read-out: Kd ± SD. Type of experiment: binding. The arrangement: EYFP-HilD (full-length HilD with N-terminal EYFP tag). On the technique in general: DSF heats the sample and reads unfolding from a dye or from intrinsic fluorescence.

The term Kd denotes the concentration at which binding is half-saturated. For `CCCCCCCC/C=C\CCCCCCCC(=O)OC` [Methyl Oleate], the Kd on HilD [1] was determined as 739 µM.
The same measure, in the same setting: under `CCCC/C=C\CCCCCCCC(=O)O` [Myristoleic Acid] stands 567 µM.
Take `CCCCCCCC/C=C/CCCCCCCC(=O)O` [elaidic acid]: the “EMSA with hilA promoter DNA” value at HilD [2] is “Elaidic acid appears to bind to HilD with similar affinity to oleic acid”.
Turning to `CCCCCCCC/C=C\CCCCCCCCCCCC(=O)O` [erucic acid], the equilibrium dissociation constant (Kd) worked out at 14.7 µM on HilD [1] and 12.8 ± 3.33 µM at HilD [3].
Turning to `CCCCCCCC/C=C\CCCCCCCC(=O)O` [oleic acid], the Kd was found to be 39.4 ± 7.98 µM on HilD [4]; 39.7 ± 7.9 µM on HilD [5]; 15 ± 3.21 µM at HilD [6]; 39 ± 8.26 µM on HilD [7]; 27.1 ± 7.08 µM on HilD [8].
In the case of `CCCCCC/C=C\CCCCCCCC(=O)O` [palmitoleic acid], on HilD [9], the dissociation constant Kd is 27.6 ± 8.7 µM.

The values above are taken from publication PMC10696396, “HilE represses the activity of the Salmonella virulence regulator HilD via a mechanism distinct from that of intestinal long-chain fatty acids” (The Journal of Biological Chemistry, 2023).
